Results on 9 compounds are retold here after article PMC11752888 (Frontiers in Microbiology, 2025).

pKd: −log10 of the molar value.

The subject of one series is JTY_0672 (TetR family transcriptional regulator) (Mycobacterium bovis BCG Tokyo 172). The series is described as follows: BLI. In general terms: In BLI a coated tip is dipped into the sample, and binding shifts an interference pattern.
Usually pKd stands for the Kd on a negative log10 scale, so that one unit is a factor of ten. In turn, “ATTCATGGTCAGCGCCTTCCCCGGTGATCCGGATTATCTGCAACCGTCAG (double strand) [JTY_3148 promoter, 50 bp WT C13]” gave a pKd of 5.30.

As for JTY_3148 promoter PCR fragment (biotin), the pKd was 5.66.

For another series, the target named is T1, JTY_0672 (Mycobacterium tuberculosis, UniProt P96941).
T1 construct: gene Rv0653c
T1 sequence (P96941 entry or part of it): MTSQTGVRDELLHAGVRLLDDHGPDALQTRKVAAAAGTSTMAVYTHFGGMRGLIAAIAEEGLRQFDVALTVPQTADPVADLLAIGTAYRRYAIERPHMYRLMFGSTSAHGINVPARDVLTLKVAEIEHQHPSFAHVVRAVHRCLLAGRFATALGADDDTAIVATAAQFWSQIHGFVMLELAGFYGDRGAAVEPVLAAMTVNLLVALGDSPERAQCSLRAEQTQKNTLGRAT
Assay: not given
As for `O=C1O[C@H]([C@@H](O)CO)C(O)=C1O` [VC], the “concentration influencing DNA binding” value came to 4 mM.

Consider `O=C(O)c1cccnc1` [VB3], for which the “concentration influencing DNA binding” value is 8 mM.

As for `N[C@@H](Cc1cnc[nH]1)C(=O)O` [His], the “concentration influencing DNA binding” value is given as 40 mM.

As for `N[C@@H](CS)C(=O)O` [Cys], the “concentration influencing DNA binding” value came to 4 mM.

As for `N[C@@H](CC(=O)O)C(=O)O` [Asp], the “concentration influencing DNA binding” value was determined as 20 mM.

On to `N[C@@H](CCC(=O)O)C(=O)O` [Glu], for which the “concentration influencing DNA binding” value was 20 mM.

For `Cc1ncc(C[n+]2csc(CCO)c2C)c(N)n1` [VB1], the “concentration influencing DNA binding” value was determined as 8 mM.
